pKd: −log10 of the molar value.
Tests used:
[1] = target: Tyrosine-protein kinase Fyn (Homo sapiens, UniProt P06241)
Ephrin type-A receptor 5 = Ephrin type-A receptor 5 (Homo sapiens, UniProt P54756)
[2] = target: Mitogen-activated protein kinase 14 (Homo sapiens, UniProt Q16539)
[3] = target: Tyrosine-protein kinase FRK (Homo sapiens, UniProt P42685)
[4] = target: T1, Mitogen-activated protein kinase kinase kinase 5 (Homo sapiens, UniProt Q99683)
T1 sequence (Q99683 whole entry): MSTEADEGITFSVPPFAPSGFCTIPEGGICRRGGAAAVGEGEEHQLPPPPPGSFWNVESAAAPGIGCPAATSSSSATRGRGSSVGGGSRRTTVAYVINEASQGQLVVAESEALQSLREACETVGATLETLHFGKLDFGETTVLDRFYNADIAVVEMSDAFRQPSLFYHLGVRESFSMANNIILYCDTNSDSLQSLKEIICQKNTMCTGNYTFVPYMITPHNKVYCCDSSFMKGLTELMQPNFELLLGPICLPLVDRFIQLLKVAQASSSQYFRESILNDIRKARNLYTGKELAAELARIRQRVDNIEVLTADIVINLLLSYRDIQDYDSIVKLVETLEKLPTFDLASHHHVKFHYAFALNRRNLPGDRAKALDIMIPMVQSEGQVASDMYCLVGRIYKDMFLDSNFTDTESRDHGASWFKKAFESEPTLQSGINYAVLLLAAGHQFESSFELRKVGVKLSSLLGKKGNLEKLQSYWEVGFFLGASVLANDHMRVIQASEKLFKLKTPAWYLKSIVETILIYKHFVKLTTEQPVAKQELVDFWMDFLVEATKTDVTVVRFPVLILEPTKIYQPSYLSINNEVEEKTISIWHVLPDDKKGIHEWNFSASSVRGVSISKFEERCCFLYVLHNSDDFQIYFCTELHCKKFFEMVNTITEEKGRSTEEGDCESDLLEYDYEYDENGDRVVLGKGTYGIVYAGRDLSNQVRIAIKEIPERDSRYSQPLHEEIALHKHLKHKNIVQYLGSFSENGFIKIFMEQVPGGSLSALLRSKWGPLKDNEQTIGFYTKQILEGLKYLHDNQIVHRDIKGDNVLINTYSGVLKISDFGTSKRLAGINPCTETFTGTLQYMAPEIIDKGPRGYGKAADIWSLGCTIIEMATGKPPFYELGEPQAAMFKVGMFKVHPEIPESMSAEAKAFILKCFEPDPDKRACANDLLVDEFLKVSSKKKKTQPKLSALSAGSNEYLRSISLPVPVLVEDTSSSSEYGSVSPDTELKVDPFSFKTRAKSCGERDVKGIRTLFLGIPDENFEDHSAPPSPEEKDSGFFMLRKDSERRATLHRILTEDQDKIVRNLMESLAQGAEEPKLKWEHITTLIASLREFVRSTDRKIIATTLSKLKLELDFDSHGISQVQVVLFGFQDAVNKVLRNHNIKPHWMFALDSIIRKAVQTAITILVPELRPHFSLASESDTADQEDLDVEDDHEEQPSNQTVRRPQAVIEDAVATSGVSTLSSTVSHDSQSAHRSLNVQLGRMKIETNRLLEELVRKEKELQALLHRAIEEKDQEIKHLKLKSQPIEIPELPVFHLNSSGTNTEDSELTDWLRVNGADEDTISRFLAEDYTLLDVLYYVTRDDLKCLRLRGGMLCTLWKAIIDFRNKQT

[5] = target: T2, Casein kinase I isoform epsilon (Homo sapiens, UniProt P49674)
T2 sequence (P49674 whole entry, canonical isoform): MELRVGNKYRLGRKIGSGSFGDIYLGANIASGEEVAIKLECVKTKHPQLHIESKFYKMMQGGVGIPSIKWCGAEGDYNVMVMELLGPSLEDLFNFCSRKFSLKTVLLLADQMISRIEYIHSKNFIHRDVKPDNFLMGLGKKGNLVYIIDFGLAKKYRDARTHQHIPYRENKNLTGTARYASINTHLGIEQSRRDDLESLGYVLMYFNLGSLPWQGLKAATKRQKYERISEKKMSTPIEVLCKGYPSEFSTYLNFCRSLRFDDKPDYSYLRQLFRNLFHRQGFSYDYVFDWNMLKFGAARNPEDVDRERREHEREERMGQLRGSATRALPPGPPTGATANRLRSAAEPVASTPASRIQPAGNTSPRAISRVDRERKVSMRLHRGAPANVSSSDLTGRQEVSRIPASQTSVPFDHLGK

[6] = target: TRAF2 and NCK-interacting protein kinase (Homo sapiens, UniProt Q9UKE5)
[7] = target: Dual specificity protein kinase CLK2 (Homo sapiens, UniProt P49760)
Sequence of Dual specificity protein kinase CLK2 (P49760 whole entry): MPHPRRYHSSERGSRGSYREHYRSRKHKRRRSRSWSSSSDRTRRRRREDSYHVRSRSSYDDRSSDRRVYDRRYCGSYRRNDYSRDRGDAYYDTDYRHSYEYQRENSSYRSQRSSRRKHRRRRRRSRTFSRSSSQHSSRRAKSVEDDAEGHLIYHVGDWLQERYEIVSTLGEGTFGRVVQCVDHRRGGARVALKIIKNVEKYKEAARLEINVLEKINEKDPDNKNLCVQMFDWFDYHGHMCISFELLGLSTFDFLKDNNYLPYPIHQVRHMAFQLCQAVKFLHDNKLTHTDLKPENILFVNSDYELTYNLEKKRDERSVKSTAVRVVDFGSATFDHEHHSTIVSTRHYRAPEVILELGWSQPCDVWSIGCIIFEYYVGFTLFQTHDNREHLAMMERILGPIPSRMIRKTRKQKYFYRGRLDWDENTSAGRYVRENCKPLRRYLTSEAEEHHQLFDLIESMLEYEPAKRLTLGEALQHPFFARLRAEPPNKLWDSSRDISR

Insulin receptor = Insulin receptor (Homo sapiens, UniProt P06213)
Ephrin type-A receptor 2 = Ephrin type-A receptor 2 (Homo sapiens, UniProt P29317)
[8] = target: Dual specificity protein kinase CLK4 (Homo sapiens, UniProt Q9HAZ1)
[9] = target: Mitogen-activated protein kinase 11 (Homo sapiens, UniProt Q15759)
Sequence of Mitogen-activated protein kinase 11 (Q15759 whole entry): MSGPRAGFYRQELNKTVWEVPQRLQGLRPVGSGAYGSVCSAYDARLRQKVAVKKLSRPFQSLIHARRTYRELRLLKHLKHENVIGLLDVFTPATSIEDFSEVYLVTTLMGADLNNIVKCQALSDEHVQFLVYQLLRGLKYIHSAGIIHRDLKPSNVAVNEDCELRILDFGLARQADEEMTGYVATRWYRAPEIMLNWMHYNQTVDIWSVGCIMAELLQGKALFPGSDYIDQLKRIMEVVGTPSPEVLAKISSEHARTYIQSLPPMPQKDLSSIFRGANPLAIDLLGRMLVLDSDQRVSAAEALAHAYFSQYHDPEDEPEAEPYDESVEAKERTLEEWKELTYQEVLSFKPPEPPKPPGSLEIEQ

[10] = target: Vascular endothelial growth factor receptor 2 (Homo sapiens, UniProt P35968)
Sequence of Vascular endothelial growth factor receptor 2 (P35968 whole entry): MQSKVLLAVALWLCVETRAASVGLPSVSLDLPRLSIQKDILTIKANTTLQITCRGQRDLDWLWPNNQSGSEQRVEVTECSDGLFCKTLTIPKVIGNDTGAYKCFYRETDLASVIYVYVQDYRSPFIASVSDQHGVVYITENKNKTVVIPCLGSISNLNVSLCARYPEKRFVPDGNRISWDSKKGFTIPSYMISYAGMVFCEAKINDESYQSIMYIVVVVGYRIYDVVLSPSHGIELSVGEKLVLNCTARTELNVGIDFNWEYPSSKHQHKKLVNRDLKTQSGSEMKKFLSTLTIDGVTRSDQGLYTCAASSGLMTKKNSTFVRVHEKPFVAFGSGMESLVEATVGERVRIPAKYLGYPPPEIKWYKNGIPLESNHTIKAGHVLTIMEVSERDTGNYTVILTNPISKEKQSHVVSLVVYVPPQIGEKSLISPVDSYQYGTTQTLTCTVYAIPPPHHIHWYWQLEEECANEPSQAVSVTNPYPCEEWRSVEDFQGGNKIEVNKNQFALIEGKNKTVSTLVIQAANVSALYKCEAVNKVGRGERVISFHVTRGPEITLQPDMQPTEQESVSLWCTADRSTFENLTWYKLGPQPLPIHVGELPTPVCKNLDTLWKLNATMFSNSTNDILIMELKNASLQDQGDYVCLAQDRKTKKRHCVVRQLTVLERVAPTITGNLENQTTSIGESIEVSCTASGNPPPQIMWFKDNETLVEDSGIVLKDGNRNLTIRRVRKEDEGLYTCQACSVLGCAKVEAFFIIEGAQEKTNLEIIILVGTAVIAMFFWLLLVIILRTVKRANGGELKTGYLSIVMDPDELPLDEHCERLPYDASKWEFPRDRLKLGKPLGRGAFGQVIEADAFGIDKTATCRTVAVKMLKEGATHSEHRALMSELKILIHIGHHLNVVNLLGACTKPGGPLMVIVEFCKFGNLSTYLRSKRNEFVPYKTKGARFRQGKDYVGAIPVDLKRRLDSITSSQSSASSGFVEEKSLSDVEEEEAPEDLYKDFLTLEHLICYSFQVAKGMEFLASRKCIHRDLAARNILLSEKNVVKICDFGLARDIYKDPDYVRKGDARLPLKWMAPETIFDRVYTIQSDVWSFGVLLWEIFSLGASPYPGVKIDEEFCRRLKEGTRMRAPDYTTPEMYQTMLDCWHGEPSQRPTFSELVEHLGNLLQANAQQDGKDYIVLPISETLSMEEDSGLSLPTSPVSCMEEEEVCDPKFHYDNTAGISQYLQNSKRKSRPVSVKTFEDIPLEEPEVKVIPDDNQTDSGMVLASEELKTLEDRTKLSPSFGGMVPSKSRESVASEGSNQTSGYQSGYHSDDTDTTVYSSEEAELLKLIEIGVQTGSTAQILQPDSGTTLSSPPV

[11] = target: Protein kinase C alpha type (Homo sapiens, UniProt P17252)
[12] = target: STE20-like serine/threonine-protein kinase (Homo sapiens, UniProt Q9H2G2)
[13] = target: Epidermal growth factor receptor (Homo sapiens, UniProt P00533)
[14] = target: Mitogen-activated protein kinase 9 (Homo sapiens, UniProt P45984)
[15] = target: T2, Casein kinase I isoform epsilon; remark: listed apart in the source
[16] = target: Tyrosine-protein kinase ABL2 (Homo sapiens, UniProt P42684)
Sequence of Tyrosine-protein kinase ABL2 (P42684 whole entry): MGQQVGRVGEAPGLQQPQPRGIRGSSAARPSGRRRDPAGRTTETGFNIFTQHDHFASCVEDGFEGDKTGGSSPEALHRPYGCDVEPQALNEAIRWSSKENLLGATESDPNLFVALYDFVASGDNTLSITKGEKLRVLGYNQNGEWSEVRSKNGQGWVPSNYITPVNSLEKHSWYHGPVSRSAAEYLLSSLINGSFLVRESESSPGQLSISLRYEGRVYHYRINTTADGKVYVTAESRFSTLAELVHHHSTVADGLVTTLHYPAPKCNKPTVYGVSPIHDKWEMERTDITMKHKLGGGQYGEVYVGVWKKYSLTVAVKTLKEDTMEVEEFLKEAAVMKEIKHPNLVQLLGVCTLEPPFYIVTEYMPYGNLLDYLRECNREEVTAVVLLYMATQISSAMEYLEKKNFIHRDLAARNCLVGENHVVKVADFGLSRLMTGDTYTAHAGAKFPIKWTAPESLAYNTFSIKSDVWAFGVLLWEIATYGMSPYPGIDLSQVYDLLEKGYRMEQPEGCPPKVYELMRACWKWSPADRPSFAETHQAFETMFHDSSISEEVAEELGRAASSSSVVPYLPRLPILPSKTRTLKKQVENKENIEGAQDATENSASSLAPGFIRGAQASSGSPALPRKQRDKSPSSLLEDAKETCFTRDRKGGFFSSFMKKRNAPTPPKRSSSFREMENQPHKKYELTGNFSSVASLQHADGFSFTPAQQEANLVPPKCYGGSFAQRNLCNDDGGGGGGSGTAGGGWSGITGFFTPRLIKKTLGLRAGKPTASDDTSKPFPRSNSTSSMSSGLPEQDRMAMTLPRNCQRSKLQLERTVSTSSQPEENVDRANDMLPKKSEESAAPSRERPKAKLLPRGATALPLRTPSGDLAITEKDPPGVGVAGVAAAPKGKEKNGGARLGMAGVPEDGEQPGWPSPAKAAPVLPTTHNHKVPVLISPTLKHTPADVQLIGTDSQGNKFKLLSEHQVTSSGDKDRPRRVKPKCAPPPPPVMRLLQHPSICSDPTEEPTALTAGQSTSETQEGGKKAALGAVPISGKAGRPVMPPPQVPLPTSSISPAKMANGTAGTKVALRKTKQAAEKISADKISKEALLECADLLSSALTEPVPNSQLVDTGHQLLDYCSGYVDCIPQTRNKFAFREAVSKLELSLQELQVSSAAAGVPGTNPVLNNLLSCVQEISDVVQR

[17] = target: Tyrosine-protein kinase ABL1 (Homo sapiens, UniProt P00519)
[18] = target: Tyrosine-protein kinase ABL1 (Homo sapiens, UniProt P00519, Q252H)
[19] = target: Tyrosine-protein kinase Lck (Homo sapiens, UniProt P06239)
Sequence of Tyrosine-protein kinase Lck (P06239 whole entry): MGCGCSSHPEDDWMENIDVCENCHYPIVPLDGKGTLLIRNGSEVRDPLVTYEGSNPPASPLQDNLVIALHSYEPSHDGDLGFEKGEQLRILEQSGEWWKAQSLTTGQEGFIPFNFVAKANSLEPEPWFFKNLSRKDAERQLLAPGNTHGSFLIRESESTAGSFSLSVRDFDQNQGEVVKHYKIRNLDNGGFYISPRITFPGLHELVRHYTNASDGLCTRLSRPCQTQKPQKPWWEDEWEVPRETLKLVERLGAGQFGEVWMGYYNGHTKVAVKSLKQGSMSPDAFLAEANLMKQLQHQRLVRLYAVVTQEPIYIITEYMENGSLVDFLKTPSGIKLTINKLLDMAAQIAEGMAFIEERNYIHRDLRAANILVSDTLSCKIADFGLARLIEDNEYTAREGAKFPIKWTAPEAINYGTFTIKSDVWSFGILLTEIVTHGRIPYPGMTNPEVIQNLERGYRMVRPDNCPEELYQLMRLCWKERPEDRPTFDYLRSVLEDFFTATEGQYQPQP

[20] = target: Tyrosine-protein kinase ABL1 (Homo sapiens, UniProt P00519, E255K)
[21] = target: Tyrosine-protein kinase ABL1 (Homo sapiens, UniProt P00519, M351T)

SMILES: C#Cc1cccc(Nc2ncnc3cc(OCCOC)c(OCCOC)cc23)c1 [ERLOTINIB]
- Kd [1]: Not Active
- Kd (Ephrin type-A receptor 5): Not Active
- Kd [2]: Not Active
- Kd [3]: Not Active
- Kd [4]: Not Active
- Kd [5]: Not Active
- Kd [6]: Not Active
- Kd [7]: Not Active
- Kd (Insulin receptor): Not Active
- Kd (Ephrin type-A receptor 2): Not Active
- Kd [8]: Not Active
- Kd [9]: Not Active
- Kd [10]: Not Active
- Kd [11]: Not Active

SMILES: Cc1ccc(NC(=O)c2ccc(CN3CCN(C)CC3)cc2)cc1Nc1nccc(-c2cccnc2)n1 [IMATINIB]
- Kd (Ephrin type-A receptor 5): Not Active
- Kd [4]: Not Active
- Kd [5]: Not Active
- Kd [6]: Not Active
- Kd [12]: Not Active
- Kd [13]: Not Active
- Kd (Insulin receptor): Not Active
- Kd (Ephrin type-A receptor 2): Not Active
- Kd [9]: Not Active
- Kd [10]: Not Active
- Kd [11]: Not Active

SMILES: O=c1ncn2nc(Sc3ccc(F)cc3F)ccc2c1-c1c(Cl)cccc1Cl [NEFLAMAPIMOD]
- Kd [1]: Not Active
- Kd [4]: Not Active
- Kd [5]: Not Active
- Kd [6]: Not Active
- Kd [12]: Not Active
- Kd [7]: Not Active
- Kd [13]: Not Active
- Kd (Insulin receptor): Not Active
- Kd [8]: Not Active
- Kd [14]: Not Active
- Kd [11]: Not Active

SMILES: CCOc1cc2ncc(C#N)c(Nc3ccc(F)c(Cl)c3)c2cc1NC(=O)/C=C/CN(C)C [PELITINIB]
- Kd [2]: Not Active
- Kd [4]: Not Active
- Kd (Insulin receptor): Not Active
- Kd (Ephrin type-A receptor 2): Not Active
- Kd [14]: Not Active
- Kd [9]: Not Active
- pKd [15]: 7.01
- Kd [10]: Not Active
- Kd [11]: Not Active

SMILES: Oc1ccc(-c2nc(-c3ccc(F)cc3)c(-c3ccncc3)[nH]2)cc1 [SB-202190]
- Kd [1]: Not Active
- Kd (Ephrin type-A receptor 5): Not Active
- Kd [16]: Not Active
- Kd [17]: Not Active
- Kd [18]: Not Active
- Kd [4]: Not Active
- Kd [19]: Not Active
- Kd [20]: Not Active
- Kd [21]: Not Active
- Kd [12]: Not Active
- Kd [7]: Not Active
- Kd (Insulin receptor): Not Active
- Kd (Ephrin type-A receptor 2): Not Active
- Kd [8]: Not Active
- pKd [15]: 6.40
- Kd [10]: Not Active
- Kd [11]: Not Active

SMILES: C[S+]([O-])c1ccc(-c2nc(-c3ccc(F)cc3)c(-c3ccncc3)[nH]2)cc1 (stereo not drawn) [SB-203580]
- Kd [1]: Not Active
- Kd (Ephrin type-A receptor 5): Not Active
- Kd [16]: Not Active
- Kd [17]: Not Active
- Kd [18]: Not Active
- Kd [4]: Not Active
- Kd [19]: Not Active
- Kd [20]: Not Active
- Kd [21]: Not Active
- Kd [7]: Not Active
- Kd (Insulin receptor): Not Active
- Kd (Ephrin type-A receptor 2): Not Active
- Kd [8]: Not Active
- Kd [10]: Not Active
- Kd [11]: Not Active

SMILES: CC[C@H](CO)Nc1nc(NCc2ccccc2)c2ncn(C(C)C)c2n1 [SELICICLIB]
- Kd [1]: Not Active
- Kd (Ephrin type-A receptor 5): Not Active
- Kd [16]: Not Active
- Kd [2]: Not Active
- Kd [3]: Not Active
- Kd [17]: Not Active
- Kd [18]: Not Active
- Kd [4]: Not Active
- Kd [19]: Not Active
- Kd [20]: Not Active
- Kd [21]: Not Active
- Kd [6]: Not Active
- Kd [12]: Not Active
- Kd [13]: Not Active
- Kd (Insulin receptor): Not Active
- Kd (Ephrin type-A receptor 2): Not Active
- Kd [14]: Not Active
- Kd [9]: Not Active
- Kd [10]: Not Active
- Kd [11]: Not Active

SMILES: Oc1c2ccccc2c2c3c(cccc13)N=N2 [SP-600125]
- Kd [1]: Not Active
- Kd (Ephrin type-A receptor 5): Not Active
- Kd [16]: Not Active
- Kd [2]: Not Active
- Kd [3]: Not Active
- Kd [17]: Not Active
- Kd [18]: Not Active
- Kd [4]: Not Active
- Kd [19]: Not Active
- Kd [20]: Not Active
- Kd [21]: Not Active
- Kd (Insulin receptor): Not Active
- Kd (Ephrin type-A receptor 2): Not Active
- Kd [9]: Not Active
- pKd [15]: 5.51
- Kd [10]: Not Active
- Kd [11]: Not Active

SMILES: COc1cc2c(N3CCN(C(=O)Nc4ccc(OC(C)C)cc4)CC3)ncnc2cc1OCCCN1CCCCC1 [TANDUTINIB]
- Kd [1]: Not Active
- Kd (Ephrin type-A receptor 5): Not Active
- Kd [16]: Not Active
- Kd [2]: Not Active
- Kd [3]: Not Active
- Kd [17]: Not Active
- Kd [18]: Not Active
- Kd [4]: Not Active
- Kd [5]: Not Active
- Kd [19]: Not Active
- Kd [20]: Not Active
- Kd [21]: Not Active
- Kd [6]: Not Active
- Kd (Insulin receptor): Not Active
- Kd (Ephrin type-A receptor 2): Not Active
- Kd [8]: Not Active
- Kd [14]: Not Active
- Kd [9]: Not Active
- Kd [11]: Not Active
